Test results from patent US7410974B2, “Halogenated Quinazolinyl nitrofurans as antibacterial agents” (Ulysses Pharmaceutical Products, Inc., priority 2003, dated 2008).
In brackets after ≈: the same amount, converted by molar mass. Like-named read-outs stand apart in the source and are kept apart here.

Tests used:
A. baumannii ATCC 19606 = assay: MIC broth microdilution (NCCLS); format: cell-based, Acinetobacter baumannii; conditions: Acinetobacter baumannii, ATCC19606, read-out: MIC
Experimental: (§1) Minimal Inhibitory Concentration (MIC) Determination. Bacteria (primary strain panel, TABLE 1). Susceptibility tests were performed following the recommendations from the National Committee for Clinical Standards (NCCLS). The MICs were determined by a broth microdilution technique using a final volume of 100 μl of cation-adjusted Mueller Hinton Broth (MHBCA) and a bacterial inoculum of 10^5-10^6 Colony Forming Units (CFU)/ml. The inocula were verified and precisely determined by applying 10-μl drops of 10-fold dilutions onto Triptic Soy Agar plates. The CFU were counted after an incubation of 24 h at 35° C. Any experiment showing an inoculum that was more or less than 10^5-10^6 CFU/ml was rejected. Control antibiotics and test compounds were prepared at a concentration equivalent to 2-fold the highest desired final concentration. Compounds were then diluted directly in the 96-well microtiter plates by serial 2-fold dilutions using a multichannel pipette. Microtiter plates were incubated during 24 h at 35° C. and growth was recorded by using a microtiterplate reader at 650 nm as well as by visual observation. The MIC was defined as the lowest concentration of compound yielding no visible growth. […] Fastidious bacteria. The medium used for Listeria monocytogenes, Neisseria meningitidis, and Campylobacter jejuni was MHBCA containing 2% laked horse blood. The medium used for Haemophilus influenzae and Branhamella (Moraxella) catarrhalis was HTM as recommended by the NCCLS. Cultures of these fastidious bacteria were incubated at 35° C. in a 5% CO2 atmosphere. […] The medium used for Bacteroides fragilis was Wilkins Chalgren broth and growth was allowed under an anaerobic atmosphere at 35° C. for 48 hours.

M. smegmatis ATCC 19420 = assay: MIC broth microdilution (NCCLS), fastidious bacteria; format: cell-based, Mycobacterium smegmatis; conditions: Mycolicibacterium smegmatis, ATCC19420, read after 48 hours
Experimental: as §1

[1] = tested on: S. epidermidis ATCC 12228; assay: MIC broth microdilution (NCCLS); format: cell-based, Staphylococcus epidermidis; conditions: Staphylococcus epidermidis, ATCC12228; S. epidermidis ATCC 12228; read-out: MIC
Experimental: as §1

E. faecium ATCC 35667 = assay: MIC broth microdilution (NCCLS); format: cell-based, Enterococcus faecium; conditions: Enterococcus faecium, ATCC35667, E. faecium ATCC 35667; read-out: MIC
Experimental: as §1

E. coli ATCC 25922 = assay: MIC broth microdilution (NCCLS); format: cell-based, Escherichia coli
Experimental: as §1

[2] = tested on: S. saprophyticus ATCC 15305; assay: MIC broth microdilution (NCCLS); format: cell-based, Staphylococcus saprophyticus; conditions: Staphylococcus saprophyticus, ATCC15305; S. saprophyticus ATCC 15305; read-out: MIC
Experimental: as §1

E. faecalis ATCC 29212 = assay: MIC broth microdilution (NCCLS); format: cell-based, Enterococcus faecalis; conditions: Enterococcus faecalis, ATCC29212; E. faecalis ATCC 29212; read-out: MIC
Experimental: as §1

E. faecium VanA = assay: MIC broth microdilution, antibiotic resistant strain panel; format: cell-based; conditions: Enterococcus faecium
Experimental: as §1
(§2) Finally, compounds were also tested against populations of various clinical strains (antibiotic resistant strain panel, TABLE 1).

[3] = tested on: L. monocytogenes ATCC 13932; assay: MIC broth microdilution (NCCLS), fastidious bacteria; format: cell-based; conditions: Listeria monocytogenes, ATCC13932, MHBCA with 2% laked horse blood, 5% CO2
Experimental: as §1

[4] = tested on: Y. enterocolytica ATCC 23715; assay: MIC broth microdilution (NCCLS); format: cell-based, Yersinia enterocolytica; conditions: Yersinia, ATCC23715, read-out: MIC
Experimental: as §1

S. aureus ATCC 29213 = assay: MIC broth microdilution (NCCLS); format: cell-based, Staphylococcus aureus; conditions: Staphylococcus aureus, ATCC29213; S. aureus ATCC 29213; read-out: MIC
Experimental: as §1

S. aureus MRSA COL = assay: MIC broth microdilution (NCCLS); format: cell-based, Staphylococcus aureus; conditions: Staphylococcus aureus, MRSA, S. aureus MRSA COL; read-out: MIC
Experimental: as §1, with “hours. […]” for “hours.”

B. fragilis ATCC 25285 = assay: MIC broth microdilution (NCCLS), anaerobic; format: cell-based; conditions: Bacteroides fragilis, ATCC25285; B. fragilis ATCC 25285; Wilkins Chalgren broth, anaerobic, 48 hours; read-out: MIC
Experimental: as §1

E. coli Ec027c (EIEC) = assay: MIC broth microdilution, E. coli strains; format: cell-based; conditions: Escherichia coli, pathotype EIEC
Experimental: as §1, §2

[5] = tested on: E. coli d25-ALR-pen14 (O157:H7); assay: MIC broth microdilution, E. coli strains; format: cell-based; conditions: Escherichia coli
Experimental: as §1, §2

[6] = tested on: E. coli d4-OLR-pen10 (O157:H7); assay: MIC broth microdilution, E. coli strains; format: cell-based; conditions: Escherichia coli
Experimental: as §1, §2

E. coli Ec022c (EIEC) = assay: MIC broth microdilution, E. coli strains; format: cell-based; conditions: Escherichia coli, pathotype EIEC
Experimental: as §1, §2

E. coli Ec119c (EIEC) = assay: MIC broth microdilution, E. coli strains; format: cell-based; conditions: Escherichia coli, pathotype EIEC
Experimental: as §1, §2

E. coli Ec118c (EIEC) = assay: MIC broth microdilution, E. coli strains; format: cell-based; conditions: Escherichia coli, pathotype EIEC
Experimental: as §1, §2

E. coli Ec117c (EIEC) = assay: MIC broth microdilution, E. coli strains; format: cell-based; conditions: Escherichia coli, pathotype EIEC
Experimental: as §1, §2

[7] = tested on: E. coli ATCC 35150 (O157:H7); assay: MIC broth microdilution, E. coli strains; format: cell-based; conditions: Escherichia coli, ATCC35150
Experimental: as §1, §2

[8] = Escherichia coli, ATCC25922, E. coli ATCC 25922 (Reference), read-out: MIC

Structure (SMILES): CO[C@H]1/C=C/O[C@@]2(C)Oc3c(C)c(O)c4c(O)c(c(/C=N/N5CCN(C)CC5)c(O)c4c3C2=O)NC(=O)/C(C)=C\C=C\[C@H](C)[C@H](O)[C@@H](C)[C@@H](O)[C@@H](C)[C@H](OC(C)=O)[C@@H]1C [Rifampicin]
- MIC (A. baumannii ATCC 19606): 4 µg/mL (≈ 4.86 µM)
- MIC (M. smegmatis ATCC 19420): 8 µg/mL (≈ 9.72 µM)
- MIC [1]: 0.004 to 0.008 µg/mL (≈ 0.00486 to 0.00972 µM)
- MIC (E. faecium ATCC 35667): 32 µg/mL (≈ 38.9 µM)
- MIC (E. coli ATCC 25922; [8]): 8 µg/mL (≈ 9.72 µM)
- MIC [2]: 0.03 µg/mL (≈ 0.0365 µM)
- MIC (E. faecalis ATCC 29212): 0.5 to 1 µg/mL (≈ 0.608 to 1.22 µM)
- MIC (E. faecium VanA): > 128 µg/mL
- MIC [3]: 0.06 µg/mL (≈ 0.0729 µM)
- MIC [4]: 8 µg/mL (≈ 9.72 µM)
- MIC (S. aureus ATCC 29213): 0.008 to 0.015 µg/mL (≈ 0.00972 to 0.0182 µM)
- MIC (S. aureus MRSA COL): 0.008 to 0.015 µg/mL (≈ 0.00972 to 0.0182 µM)

Structure (SMILES): CN(C)[C@@H]1C(O)=C(C(N)=O)C(=O)[C@@]2(O)C(O)=C3C(=O)c4c(O)cccc4[C@@](C)(O)[C@H]3C[C@@H]12 [Tetracycline]
- MIC (A. baumannii ATCC 19606): 16 µg/mL (≈ 36 µM)
- MIC (B. fragilis ATCC 25285): 0.25 µg/mL (≈ 0.563 µM)
- MIC (E. coli Ec027c (EIEC)): > 32 µg/mL
- MIC [5]: > 32 µg/mL
- MIC [6]: > 32 µg/mL
- MIC (E. coli Ec022c (EIEC)): 2 µg/mL (≈ 4.5 µM)
- MIC (E. coli Ec119c (EIEC)): > 32 µg/mL
- MIC (E. coli Ec118c (EIEC)): 4 µg/mL (≈ 9 µM)
- MIC (E. coli Ec117c (EIEC)): > 32 µg/mL
- MIC [7]: 2 µg/mL (≈ 4.5 µM)
- MIC (E. coli ATCC 25922; E. coli ATCC 25922 (Reference)): 2 µg/mL (≈ 4.5 µM)
- MIC (E. coli ATCC 25922; [8]): 1 to 2 µg/mL (≈ 2.25 to 4.5 µM)
- MIC [2]: 1 µg/mL (≈ 2.25 µM)
- MIC (E. faecalis ATCC 29212): 16 to 32 µg/mL (≈ 36 to 72 µM)
- MIC [4]: > 32 µg/mL
- MIC (S. aureus ATCC 29213): 0.5 to 1 µg/mL (≈ 1.13 to 2.25 µM)
- MIC (S. aureus MRSA COL): 2 µg/mL (≈ 4.5 µM)
